# Measured values reported in patent US6093744A, “N-acyl sulfamic acid esters useful as hypocholesterolemic agents” (Warner-Lambert Company, priority 1998, dated 2000).
# Counter-ions that a name gives are not always drawn.
# Columns and labels:
# [1] = biological target: T1, acyl-CoA: cholesterol acyltransferase (ACAT) (Rattus norvegicus, UniProt Q7TQM4); assay: In vitro inhibition of acylation of cholesterol by oleic acid (LAI), rat liver microsomes; assay type: biochemical; conditions: radiolabeled oleic acid
# T1 construct: tissue preparation containing rat liver microsomes; from tissue; host or cells: rat liver microsomes
# T1 sequence (Q7TQM4 1-524): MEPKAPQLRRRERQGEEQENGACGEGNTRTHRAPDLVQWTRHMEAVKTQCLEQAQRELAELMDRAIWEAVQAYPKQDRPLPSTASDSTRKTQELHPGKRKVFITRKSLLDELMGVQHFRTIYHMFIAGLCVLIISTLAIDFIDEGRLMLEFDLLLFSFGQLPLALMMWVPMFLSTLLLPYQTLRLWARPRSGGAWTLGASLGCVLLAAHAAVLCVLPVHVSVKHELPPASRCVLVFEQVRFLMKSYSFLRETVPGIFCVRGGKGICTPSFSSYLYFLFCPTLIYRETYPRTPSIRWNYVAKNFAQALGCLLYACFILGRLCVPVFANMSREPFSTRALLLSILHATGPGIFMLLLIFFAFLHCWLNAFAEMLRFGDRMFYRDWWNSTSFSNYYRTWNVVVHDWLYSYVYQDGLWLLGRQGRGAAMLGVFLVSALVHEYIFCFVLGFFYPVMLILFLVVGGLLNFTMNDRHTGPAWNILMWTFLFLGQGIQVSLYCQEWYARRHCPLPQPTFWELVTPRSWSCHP
# Protocol: The ability of representative compounds of the present invention to inhibit ACAT was measured using an in vitro test more fully described in Field F J, Salone R G, Biochemica et Biophysica 1982; 712:557-570. The test assesses the ability of a test compound to inhibit the acylation of cholesterol by oleic acid by measuring the amount of radiolabeled cholesterol oleate formed from radiolabeled oleic acid in a tissue preparation containing rat liver microsomes.
# Plasma TC = assay: in vivo screen designated APCC (high fat, high cholesterol diet, plasma cholesterol); design: species or system male Sprague-Dawley rats; conditions: dose 10 mg/kg, rats, PCC diet with 0.5% cholic acid overnight, vehicle CMC/Tween; for change in vivo at 10 mg/kg: Rattus norvegicus
# Description: In one in vivo screen designated APCC, male Sprague-Dawley rats (200 to 225 g) were randomly divided into treatment groups and dosed at 4 PM with either vehicle (CMC/Tween) or suspensions of compounds in vehicle. The normal chow diet was then replaced with a high fat, high cholesterol diet (designated PCC) containing 0.5% cholic acid. The rats consumed this diet ad libitum during the night and were sacrificed at 8 AM to obtain blood samples for cholesterol analysis using standard procedures. Statistical differences between mean cholesterol values for the same vehicle were determined using analysis of variance followed by Fisher's least significant test.
SMILES,IC50 [1],change in vivo at 10 mg/kg (Plasma TC),APCC % Change in Plasma TC (Plasma TC)
"CC(C)c1cc(C(C)C)c(CC(=O)NS(=O)(=O)Oc2c(C(C)C)cc(NC(=O)[C@@H](N)CCCCN)cc2C(C)C)c(C(C)C)c1 [Example 2, (S)-[(2,4,6-Triisopropyl-phenyl)-acetyl]-sulfamic acid 4-(2,6-diamino-hexanoylamino)-2,6-diisopropyl-phenyl ester dihydrochloride]",> 50 µM,-60%,
"CC(C)c1cc(C(C)C)c(CC(=O)NS(=O)(=O)Oc2c(C(C)C)cc(CO)cc2C(C)C)c(C(C)C)c1 [Example 25, [(2,4,6-Triisopropyl-phenyl)-acetyl]-sulfamic acid 4-hydroxymethyl-2,6-diisopropyl-phenyl ester]",38.5 µM,-54%,
"CC(C)c1cc(C(C)C)c(CC(=O)NS(=O)(=O)Oc2c(C(C)C)cc(NC(=O)C(C)(C)N)cc2C(C)C)c(C(C)C)c1 [Example 13, [(2,4,6-Triisopropyl-phenyl)-acetyl]-sulfamic acid 4-(2-amino-2-methyl-propionylamino)-2,6-diisopropyl-phenyl ester]",> 50 µM,-8%,
"CC(C)c1cc(C(C)C)c(CC(=O)NS(=O)(=O)Oc2c(C(C)C)cc(NCCO)cc2C(C)C)c(C(C)C)c1 [Example 27, [(2,4,6-Triisopropyl-phenyl)-acetyl]-sulfamic acid 4-(2-hydroxy-ethylamino)-2,6-diisopropyl-phenyl ester]",43 µM,,
"CC(C)c1cc(C(C)C)c(CC(=O)NS(=O)(=O)Oc2c(C(C)C)cc(OCCCN(C)C)cc2C(C)C)c(C(C)C)c1.Cl [Example 15, [(2,4,6-Triisopropyl-phenyl)-acetyl]-sulfamic acid 4-(3-dimethylamino-propoxy)-2,6-diisopropyl-phenyl ester hydrochloride salt]",,,-26%
"CC(C)c1cc(C(C)C)c(CC(=O)NS(=O)(=O)Oc2c(C(C)C)cc(CNC(=O)CN)cc2C(C)C)c(C(C)C)c1 [Example 19, [(2,4,6-Triisopropyl-phenyl)-acetyl]-sulfamic acid 4-[(2-amino-acetylamino)-methyl]-2,6-diisopropyl-phenyl ester]",> 50 µM,-16%,
CC(C)c1cc(C(C)C)c(CC(=O)NS(=O)(=O)Oc2c(C(C)C)cc(NC(=O)C(N)Cc3c[nH]c4ccccc34)cc2C(C)C)c(C(C)C)c1 (centres unmarked) [Example 9],24 µM,-25%,
"CSCCC(N)C(=O)Nc1cc(C(C)C)c(OS(=O)(=O)NC(=O)Cc2c(C(C)C)cc(C(C)C)cc2C(C)C)c(C(C)C)c1 (centres unmarked) [Example 6, [(2,4,6-Triisopropyl-phenyl)-acetyl]-sulfamic acid 4-(2-amino-4-methylsulfanyl-butyrylamino)-2,6-diisopropyl-phenyl ester trifluoroacetate]",750 µM,-72%,
"CC(C)c1cc(C(C)C)c(CC(=O)NS(=O)(=O)Oc2c(C(C)C)cc(NC(=O)CCCCN)cc2C(C)C)c(C(C)C)c1 [Example 10, [(2,4,6-Triisopropyl-phenyl)-acetyl]-sulfamic acid 4-(5-amino-pentanoylamino)-2,6-diisopropyl-phenyl ester trifluoroacetate(1:1) (salt)]",,-15%,
"CC(C)c1cc(C(C)C)c(CC(=O)NS(=O)(=O)Oc2c(C(C)C)cc(NC(=O)[C@H](C)N)cc2C(C)C)c(C(C)C)c1 [Example 12, (L)-[(2,4,6-Triisopropyl-phenyl)-acetyl]-sulfamic acid 4-(2-amino-propionylamino)-2,6-diisopropyl-phenyl ester]",> 50 µM,-74%,
"CC(C)c1cc(C(C)C)c(CC(=O)NS(=O)(=O)Oc2c(C(C)C)cc(C#N)cc2C(C)C)c(C(C)C)c1 [Example 18, [(2,4,6-Triisopropyl-phenyl)-acetyl]-sulfamic acid 4-cyano-2,6-diisopropyl-phenyl ester]",> 50 µM,-38%,
"CC(C)c1cc(C(C)C)c(CC(=O)NS(=O)(=O)Oc2c(C(C)C)cc(OCCCN(C)C)cc2C(C)C)c(C(C)C)c1 [Example 14, [(2,4,6-Triisopropyl-phenyl)-acetyl]-sulfamic acid 4-(3-dimethylamino-propoxy)-2,6-diisopropyl-phenyl ester]",> 50 µM,,-11%
CC(=O)Nc1cc(C(C)C)c(OS(=O)(=O)NC(=O)Cc2c(C(C)C)cc(C(C)C)cc2C(C)C)c(C(C)C)c1 [Example 26],30 µM,-44%,
CC(C)c1cc(C(C)C)c(CC(=O)NS(=O)(=O)Oc2c(C(C)C)cc(NC(=O)NCCC(=O)O)cc2C(C)C)c(C(C)C)c1 [Example 8],> 50 µM,-15%,
"CC(C)c1cc(C(C)C)c(CC(=O)NS(=O)(=O)Oc2c(C(C)C)cc(NC(=O)CN)cc2C(C)C)c(C(C)C)c1 [Example 4, [(2,4,6-Triisopropyl-phenyl)-acetyl]-sulfamic acid 4-(2-amino-acetylamino)-2,6-diisopropyl-phenyl ester]",48 µM,-65%,
"CC(C)c1cc(C(C)C)c(CC(=O)NS(=O)(=O)Oc2c(C(C)C)cc(SC#N)cc2C(C)C)c(C(C)C)c1 [Example 17, [(2,4,6-Triisopropyl-phenyl)-acetyl]-sulfamic acid 2,6-diisopropyl-4-thiocyanato-phenyl ester]",29 µM,-46%,
"CC(C)c1cc(C(C)C)c(CC(=O)NS(=O)(=O)Oc2c(C(C)C)cc(C=CC#N)cc2C(C)C)c(C(C)C)c1 [Example 21, [(2,4,6-Triisopropyl-phenyl)-acetyl]-sulfamic acid 4-(2-cyano-vinyl)-2,6-diisopropyl-phenyl ester]",44.6 µM,-35%,

# Continued, in another order:
IC50 [1],SMILES,change in vivo at 10 mg/kg (Plasma TC),APCC % Change in Plasma TC (Plasma TC)
33 µM,CC(C)c1cc(C(C)C)c(CC(=O)NS(=O)(=O)Oc2c(C(C)C)cc(NC(=O)Nc3c(C(C)C)cccc3C(C)C)cc2C(C)C)c(C(C)C)c1 [Example 29],-3%,
19 µM,"CCOC(=O)CCCCCc1cc(C(C)C)c(OS(=O)(=O)NC(=O)Cc2c(C(C)C)cc(C(C)C)cc2C(C)C)c(C(C)C)c1 [Example 36, 6-(3,5-Diisopropyl-4-{[(2,4,6-triisopropyl-phenyl)-acetyl]sulfamoyloxy}-phenyl)-hexanoic acid ethyl ester]",-17%,
10.6 µM,"CC(C)c1cc(C(C)C)c(CC(=O)NS(=O)(=O)Oc2c(C(C)C)cc(NS(=O)(=O)c3cccc4c(N(C)C)cccc34)cc2C(C)C)c(C(C)C)c1 [Example 33, [(2,4,6-Triisopropyl-phenyl)-acetyl]-sulfamic acid 4-(5 dimethylamino-naphthalene-1-sulfonylamino)-2,6-diisopropyl-phenyl ester]",-61%,
20.3 µM,CC(C)c1cc(C(C)C)c(CC(=O)NS(=O)(=O)Oc2c(C(C)C)cc(NC(=O)Nc3ccccc3)cc2C(C)C)c(C(C)C)c1 [Example 30],-30%,
43.8 µM,"CC(C)c1cc(C(C)C)c(CC(=O)NS(=O)(=O)Oc2c(C(C)C)cc(N(CCO)CCO)cc2C(C)C)c(C(C)C)c1 [Example 28, [(2,4,6-Triisopropyl-phenyl)-acetyl]-sulfamic acid 4-[bis-(2-hydroxy-ethyl)-amino]-2,6-diisopropyl-phenyl ester]",-48%,
31.1 µM,"CC(C)c1cc(C(C)C)c(CC(=O)NS(=O)(=O)Oc2c(C(C)C)cc(NS(=O)(=O)c3cccs3)cc2C(C)C)c(C(C)C)c1 [Example 32, [(2,4,6-Triisopropyl-phenyl)-acetyl]-sulfamic acid 2,6-diisopropyl-4-(thiophene-2-sulfonyamino)-phenyl ester]",-60%,
> 50 µM,CC(C)c1cc(C(C)C)c(CC(=O)NS(=O)(=O)Oc2c(C(C)C)cc(CCCCCC(=O)O)cc2C(C)C)c(C(C)C)c1 [Example 37],-47%,
37.4 µM,CC(C)c1cc(C(C)C)c(CC(=O)NS(=O)(=O)Oc2c(C(C)C)cc(NC(=S)Nc3ccccc3)cc2C(C)C)c(C(C)C)c1 [Example 31],-21%,
45 µM,"CC(C)c1cc(C(C)C)c(CC(=O)NS(=O)(=O)Oc2c(C(C)C)cc(NS(C)(=O)=O)cc2C(C)C)c(C(C)C)c1 [Example 34, [(2,4,6-Triisopropyl-phenyl)-acetyl]-sulfamic acid 2,6-diisopropyl-4methanesulfonylamino-phenyl ester]",-13%,
50 µM,"CC(C)c1cc(C(C)C)c(CC(=O)NS(=O)(=O)Oc2c(C(C)C)cc(S(N)(=O)=O)cc2C(C)C)c(C(C)C)c1 [Example 35, [(2,4,6-Triisopropyl-phenyl)-acetyl]-sulfamic acid 2,6-diisopropyl-4-sulfamoyl-phenyl ester]",,
